How the values were obtained:
Assay type in all cases: in vivo
[1] = system: Escherichia coli ATCC 25922; test: Efficacy in murine E. coli septicemia; details: ATCC25922; ICR mice inoculated intraperitoneally with Escherichia coli ATCC 25922 at 4×10^4 CFU; administered intravenously 1 hour after inoculation (doses in mg/kg); mortality recorded 7 days; non-linear regression
Protocol: (§1) Efficacy studies were performed in an E. coli murine septicemia model according to models published elsewhere (Goldstein, B. P., G. Candiani, T. M. Arain, G. Romano, I. Ciciliato, M. Berti, M. Abbondi, R. Scotti, M. Mainini, F. Ripamonti, and et al. 1995. Antimicrobial activity of MDL 63,246, a new semisynthetic glycopeptide antibiotic Antimicrob Agents Chemother. 39:1580-1588; Misiek, M., T. A. Pursiano, F. Leitner, and K. E. Price 1973. Microbiological properties of a new cephalosporin, BL-S 339: 7-(phenylacetimidoyl-aminoacetamido)-3-(2-methyl-1,3,4-thiadiazol-5-ylthio methyl)ceph-3-em-4-carboxylic acid Antimicrob Agents Chemother. 3:40-48).
The compound was dissolved in 10% DMSO, 0.1% Tween 80, 0.9% NaCl solution and administered intravenously at 10 ml/kg at 1 hour after bacterial inoculation. The compound was administered at 80, 40, 20, 5, 2.5, and 1.25 mg/kg. A control with ampicillin was included in the evaluation.
(§2) Male or female ICR mice weighing 22±2 g from MDS Pharma Services were used for the evaluation. Food and water was given ad libitum. Groups of 6 mice weighing 22+g were used for the experiment. Mice were inoculated intraperitoneally with Escherichia coli ATCC 25922 at 4×10^4 CFU in 0.5 ml of Brain Heart Infusion Broth (Difco) containing 5% mucin (Sigma). Mortality was recorded once daily for 7 days following bacterial inoculation.

[2] = system: Proteus vulgaris ATCC 13315; test: Efficacy in murine Proteus vulgaris septicemia; details: ATCC13315; ICR mice inoculated intraperitoneally with Proteus vulgaris ATCC 13315 at 1×10^8 CFU; administered intravenously 1 hour after inoculation (doses in mg/kg); mortality recorded 7 days; non-linear regression
Protocol: as §1, with “P. vulgaris” for “E. coli”
(§3) The compound was dissolved in 10% DMSO, 0.1% Tween 80, 0.9% NaCl solution and administered intravenously at 10 ml/kg at 1 hour after bacterial inoculation. The compound was administered at 20, 10, 5, 2.5, and 1.25 mg/kg. A control with ampicillin was included in the evaluation.
as §2, with “24±2” for “22±2”, “24±g” for “22+g”, “Proteus vulgaris” for “Escherichia coli”, “13315” for “25922”, “1×10^8” for “4×10^4”

[3] = system: Klebsiella pneumoniae ATCC 10031; test: Efficacy in murine Klebsiella pneumoniae septicemia; details: ATCC10031; ICR mice inoculated intraperitoneally with Klebsiella pneumoniae ATCC 10031 at 3×10^7 CFU; administered intravenously 1 hour after inoculation (doses in mg/kg); mortality recorded 7 days; non-linear regression
Protocol: as §1, with “K. pneumoniae” for “E. coli”
as §3
as §2, with “24±2” for “22±2”, “24±g” for “22+g”, “Klebsiella pneumoniae” for “Escherichia coli”, “10031” for “25922”, “3×10^7” for “4×10^4”

CC1(C)S[C@@H]2[C@H](NC(=O)[C@H](N)c3ccccc3)C(=O)N2[C@H]1C(=O)O [ampicillin]
ED50 [1]: 14.1 mg/kg
ED50 [2]: 29.7 mg/kg
ED50 [3]: 6.8 mg/kg
